# According to PMC9401038 (Angewandte Chemie (International Ed. in English), 2022):
# “And” between values parts separate entries of the source, which are not always exact repeats. Equal entries are not always repeated.
# Columns and labels:
# β1‐AR = β1‐AR (Homo sapiens, UniProt P08588); assay: β1‐AR functional cAMP assay; format: cell-based
# [1] = UV/Vis photochemical characterization; format: physicochemical
# [2] = Photostationary state quantification by 1H‐NMR; format: physicochemical; settings: 12 °C, 100 μM in D2O
# β2‐AR = β2‐AR (Homo sapiens, UniProt P07550); assay: β2‐AR inhibition of cimaterol-stimulated cAMP in HEK293 H188 M1 cells; settings: in the dark and upon illumination at 380 nm, cimaterol 3 nM
# Chain of β2‐AR (P07550 whole entry): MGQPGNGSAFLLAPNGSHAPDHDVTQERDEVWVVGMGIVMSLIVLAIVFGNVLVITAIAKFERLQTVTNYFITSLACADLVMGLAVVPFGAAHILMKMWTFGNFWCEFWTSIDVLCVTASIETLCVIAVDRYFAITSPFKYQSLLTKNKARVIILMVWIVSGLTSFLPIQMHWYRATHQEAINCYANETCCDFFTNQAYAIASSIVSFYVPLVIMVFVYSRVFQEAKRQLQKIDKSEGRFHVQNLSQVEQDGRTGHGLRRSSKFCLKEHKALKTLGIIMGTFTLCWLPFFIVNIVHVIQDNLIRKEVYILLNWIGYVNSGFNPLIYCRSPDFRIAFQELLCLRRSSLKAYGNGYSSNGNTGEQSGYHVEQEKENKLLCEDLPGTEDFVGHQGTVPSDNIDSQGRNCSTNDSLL
# [3] = test system: zebrafish larvae cardiac rhythm; assay: Cardiac frequency monitoring in zebrafish larvae under dark/380 nm/550 nm; format: in vivo; settings: 10 μM, 7 dpf larvae, dark and both illumination conditions equivalent
# [4] = 50 μM in Epac buffer+0.5 % DMSO, 25–28 °C
# Chain of β1‐AR (P08588 whole entry): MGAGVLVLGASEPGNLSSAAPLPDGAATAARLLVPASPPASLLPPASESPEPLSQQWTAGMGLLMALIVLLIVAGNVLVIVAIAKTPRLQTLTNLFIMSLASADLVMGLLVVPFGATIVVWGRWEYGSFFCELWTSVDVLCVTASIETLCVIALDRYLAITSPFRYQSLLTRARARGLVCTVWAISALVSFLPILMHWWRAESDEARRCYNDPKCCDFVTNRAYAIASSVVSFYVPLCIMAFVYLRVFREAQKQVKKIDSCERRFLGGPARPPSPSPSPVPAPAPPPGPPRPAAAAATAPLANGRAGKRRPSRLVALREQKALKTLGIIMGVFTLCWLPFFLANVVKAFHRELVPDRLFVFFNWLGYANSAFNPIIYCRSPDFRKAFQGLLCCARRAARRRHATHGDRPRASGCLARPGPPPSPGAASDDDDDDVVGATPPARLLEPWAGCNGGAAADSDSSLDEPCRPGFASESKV
"EC50 (β1‐AR; EC50 DARK, dark (trans isomer))","EC50 (β1‐AR; EC50 LIGHT, constant violet light 380 nm (cis isomer))","β1/β2 ratio DARK (β1‐AR; dark, ratio of 1 implies no selectivity towards β1‐AR)",functional profile towards β1‐AR (β1‐AR; two β1‐AR expression levels),"β1/β2 ratio LIGHT (β1‐AR; violet light 380 nm, ratio of 1 implies no selectivity)","PPS (Photoinduced Potency Shift) (β1‐AR; β1‐AR, relation between EC50 in light and dark)",τ cis→trans [1],"λ n‐π* (cis) [1, 4]","λ π‐π* (trans) [1, 4]","t 1/2 (thermal relaxation of cis isomer) ([1]; 50 μM in Epac buffer+0.5 % DMSO, 28 °C, after 3 min 365 nm)","τ trans→cis ([1]; 365 nm, CoolLED 5 % intensity (0.1 mW mm^−2), 50 μM in Epac buffer+0.5 % DMSO)",PSS365 ([2]; after 365 nm illumination),PSS530 ([2]; after 525 nm illumination),IC50 values against β2‐AR (β2‐AR),Structure (SMILES),cardiac rhythm [3]
15.1 nM,331 nM,161.8,low efficacy partial agonists,8.6,20.08,57.6 s⁻¹,430 nm,346 nm,67.6 h,4.4 s⁻¹,95 %cis,76.3 % trans and 76 % trans,within the μM range,CC(C)NC[C@H](O)COc1ccc(/N=N/c2ccccc2)cc1 [pAzo‐1],
,,,,,,,,,,,,,,"COc1ccccc1OCCNCC(O)COc1cccc2[nH]c3ccccc3c12 (stereo not drawn) [Carvedilol, carvedilol]",significant reduction in the cardiac rhythm
